In PMC9486086, “Development of a UPLC-MS/MS method for the determination of orelabrutinib in rat plasma and its application in pharmacokinetics” (Frontiers in Pharmacology, 2022):
Where two headings read alike, the source gives them in different places.

Columns and labels:
[1] = Pharmacokinetic study in rats after single oral dose (UPLC-MS/MS, non-compartmental analysis); format: in vivo; settings: male, Sprague-Dawley, rat, plasma, single oral dose of 10 mg/kg, n = 6, mean ± SD
From the text: Six male Sprague-Dawley (SD) Rats (weighing 250 ± 20 g) were obtained from the Laboratory Animal Center of The First Affiliated Hospital of Wenzhou Medical University (Zhejiang, China). They were housed in an environmentally controlled rearing chamber and given food and water that met the standard for 1 week. The animal experiment was approved by the Ethics Committee for the Protection and Use of Laboratory Animals of The First Affiliated Hospital of Wenzhou Medical University (Zhejiang, China).
The rats were fasted for 12 h before the start of the experiment and were given free access to water. Oral gavage was administered to rats at a dose of 10 mg/kg of orelabrutinib dissolved in 0.5% sodium carboxymethylcellulose (CMC-Na). Blood was collected at different collection points at 0.333, 0.667, 1, 1.5, 2, 3, 4, 6, 8, 12, 24 and 48 h after administration. After collected, blood in centrifuge tube was centrifuged for 10 min at 13,000 × g at room temperature, and 100 μl of plasma was separated and stored at −80°C prior to analysis. The concentrations of the analyte were determined using this validated UPLC-MS/MS method, while the non-compartmental model was analyzed using DAS 2.0 software (Drug and Statistical Software of the Shanghai Mathematical Pharmacology Professional Committee, China), and pharmacokinetic parameters were calculated.

[2] = parameters: method as in Zhang et al., 2020; settings: oral, ref Zhang et al., 2020, cited from earlier work
[3] = Stability of orelabrutinib in rat plasma under storage and analytical conditions; format: in vitro ADME; settings: for Measured concentration, Mean ± SD / RE (relative error vs nominal): n = 5
Protocol: To investigate the stability of orelabrutinib in rat plasma, QC plasma samples of three concentrations were placed in different environments to examine the short-term, long-term, three freeze-thaw cycles and stability at 10°C. Short-term stability was determined by placing plasma samples at room temperature for at least 3 h. Long-term stability was determined by testing plasma samples after 21 days of storage at −80°C. The stability of the plasma samples was evaluated by measuring the stability of three freeze-thaw cycles from freezing (−80°C) to thawing (room temperature) three times. In addition, the stability was determined by storing the prepared plasma samples in an autosampler (10°C) for 4 h.

[4] = prepared plasma samples, autosampler 10°C for 4 h, nominal 2 ng/ml
[5] = prepared plasma samples, autosampler 10°C for 4 h, nominal 200 ng/ml
[6] = prepared plasma samples, autosampler 10°C for 4 h, nominal 1600 ng/ml
[7] = rat plasma, 21 days at −80°C, nominal 2 ng/ml
[8] = rat plasma, 21 days at −80°C, nominal 200 ng/ml
[9] = rat plasma, 21 days at −80°C, nominal 1600 ng/ml
[10] = rat plasma, room temperature at least 3 h, nominal 2 ng/ml
[11] = rat plasma, room temperature at least 3 h, nominal 200 ng/ml
[12] = rat plasma, three freeze-thaw cycles (−80°C to room temperature), nominal 2 ng/ml
[13] = rat plasma, three freeze-thaw cycles (−80°C to room temperature), nominal 200 ng/ml
[14] = rat plasma, three freeze-thaw cycles (−80°C to room temperature), nominal 1600 ng/ml

AUC(0-inf) [1]: 3600 ± 1540 ng·h/mL
AUC(0-t) [1]: 3590 ± 1540 ng·h/mL
Cmax [1]: 1930 ± 1030 ng/mL
Tmax [1]: 0.56 ± 0.17 h
half-life [1]: 8.25 ± 5.64 h
Measured concentration, Mean ± SD [3, 4]: 2.0 ± 0.1 ng/mL
RE (relative error vs nominal) [3, 4]: −0.2%
Measured concentration, Mean ± SD [3, 5]: 208.0 ± 5.3 ng/mL
RE (relative error vs nominal) [3, 5]: 4.0%
Measured concentration, Mean ± SD [3, 6]: 1649.2 ± 25.3 ng/mL
RE (relative error vs nominal) [3, 6]: 3.1%
Measured concentration, Mean ± SD [3, 7]: 2.1 ± 0.1 ng/mL
RE (relative error vs nominal) [3, 7]: 5.4%
Measured concentration, Mean ± SD [3, 8]: 212.6 ± 7.3 ng/mL
RE (relative error vs nominal) [3, 8]: 6.3%
Measured concentration, Mean ± SD [3, 9]: 1389.2 ± 147.3 ng/mL
RE (relative error vs nominal) [3, 9]: −13.2%
Measured concentration, Mean ± SD [3, 10]: 2.1 ± 0.1 ng/mL
RE (relative error vs nominal) [3, 10]: 6.1%
Measured concentration, Mean ± SD [3, 11]: 199.3 ± 4.8 ng/mL
RE (relative error vs nominal) [3, 11]: −0.4%
Measured concentration, Mean ± SD ([3]; rat plasma, room temperature at least 3 h, nominal 1600 ng/ml): 1603.9 ± 24.6 ng/mL
Measured concentration, Mean ± SD [3, 12]: 2.0 ± 0.1 ng/mL
RE (relative error vs nominal) [3, 12]: 1.0%
Measured concentration, Mean ± SD [3, 13]: 220.3 ± 8.5 ng/mL
RE (relative error vs nominal) [3, 13]: 10.2%
Measured concentration, Mean ± SD [3, 14]: 1773.7 ± 57.6 ng/mL
RE (relative error vs nominal) [3, 14]: 10.9%
Stability in plasma samples (in words) ([3]; rat plasma, room temperature, 10°C, three freeze (−80°C)/thaw (RT) cycles, −80°C for 21 days): stable
SMILES: C=CC(=O)N1CCC(c2ccc(C(N)=O)c(-c3ccc(Oc4ccccc4)cc3)n2)CC1 [Orelabrutinib]
Dose dependence of AUC and Cmax ([2]; 64 healthy subjects, single 20-400 mg or multiple doses for 14 days): increased proportionally
Cmax ([2]; healthy subjects, dose not stated): ~300 ng/mL
